Holding throughout (assay): growth of human tumour cells (NCI), 48 h
In test [1] the test system is IGROV1 ovarian.
Test [2] relates to NCI-H226 lung.
In test [3] the test system is SW-620 colon.
In test [4] the test system is COLO 205 colon.
The subject of test [5] is MCF7 breast.
Test [6] has as its system PC-3 prostate.
Test [7] has as its system CAKI-1 renal.
Test [8] concerns EKVX NSCLC.
Test [9] has as its system A498 renal.
For test [10], the system named is MDA-MB-435.

Molecules are shown by their SMILES.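 Exposure lasted 48 hours, with cells grown in 96-well plates and compounds tested at five concentrations. At the GI50, growth is halved. TGI: total growth inhibition.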

On to `Cc1ccc(NC(=O)CSc2nnc3n(Cc4ccccc4)c(=O)c4c(C)c(C(N)=O)sc4n23)cc1`, for which the GI50 was 37 µM in test [1]; 27.2 µM in test [2]; more than 100 µM in [3]; 78 µM in [4]; more than 100 µM in test [5]; more than 100 µM in test [6]. Moreover, the GI50 in test [7] was more than 100 µM; in [8] it was 95 µM; in test [9] it was 13.2 µM; in [10] it was more than 100 µM. The TGI in test [1], in [2], in [3], in test [4], in [5] and in test [6] was more than 100 µM throughout. Further, the TGI in test [7] is more than 100 µM; in [8], more than 100 µM; in test [9], 63.1 µM; in test [10] it was more than 100 µM.
For `CSC(=S)OC1CC(n2cnc3c(NC(=O)c4ccccc4)ncnc32)OC1CO[Si](C)(C)C(C)(C)C` (centres undefined), the TGI was 44.2 µM in test [1]; more than 56.2 µM in [2]; more than 56.2 µM in test [3]; 18.1 µM in [4]; 40.3 µM in [5]; more than 46.4 µM in [6]. The TGI in [7] was more than 46.4 µM; in test [8], more than 56.2 µM; in [9], more than 31.6 µM; in test [10], 27.9 µM.
Turning to `Cc1ccc(C(=O)/C(=C\c2ccc([N+](=O)[O-])cc2)S(=O)Cc2ccc(Cl)cc2)cc1` (centres undefined), the GI50 was 1.77 µM in test [1]; 2.81 µM in [2]; 1.59 µM in [3]; 1.88 µM in [4]; 1.38 µM in test [5]; 1.56 µM in [6]. Moreover, the GI50 in [7] was 1.81 µM; in test [8], 1.88 µM; in [9] it was 2.61 µM; in test [10] it was 1.87 µM. The TGI in [1] is 3.45 µM; in test [2], 11.5 µM; in [3] it was 3.44 µM; in test [4] it was 3.81 µM; in test [5] it was 3.68 µM; in test [6], 3.12 µM. Besides, the TGI is 4.04 µM in [7], 4.02 µM in test [8], 7.63 µM in test [9] and 4 µM in test [10].
Turning to `CCCCCCCCCCCCCCCCCCOCC(CCP(=O)(CP(=O)(O)O)Oc1ccccc1)OCCCCCCCCCCCCCCCCCC` (centres undefined), the TGI in test [1], in test [2], in test [3], in test [4], in test [5] and in test [6] was more than 100 µM in each case. In addition, the TGI in test [7], in [8], in test [9] and in test [10] was more than 100 µM each time.
For the compound `C/C(=C\c1cc(C(F)(F)F)n(-c2ccc(N)cc2)n1)[C@@H]1C[C@@H]2O[C@]2(C)CCC[C@H](C)[C@H](O)[C@@H](C)C(=O)C(C)(C)[C@@H](O)CC(=O)O1`, the GI50 in test [1] was 0.068 µM; in test [2], 0.956 µM; in [3], 0.00554 µM; in test [4], 0.0162 µM; in [5], 0.0041 µM; in test [6] it was 0.0297 µM. Also, the GI50 is 0.221 µM in [7], 0.23 µM in [8], 0.0438 µM in [9] and 0.00227 µM in test [10]. For the same compound, the TGI in test [1] is more than 11.1 µM; in [2], more than 11.1 µM; in test [3] it was more than 11.1 µM; in [4], 0.582 µM; in [5], more than 11.1 µM; in test [6], more than 11.1 µM. Further, the figures for the TGI in [7], in [8] and in test [10] were more than 11.1 µM, more than 11.1 µM and 0.00567 µM, respectively.
Turning to `O=C(NO)[C@@H](Cc1ccccc1)NS(=O)(=O)c1ccc(-c2ccccc2)cc1`, the GI50 in [1] is 8.52 µM; in test [2], more than 25 µM; in test [3] it was 21.2 µM; in [4], more than 25 µM; in test [5], more than 25 µM; in test [6], 7.97 µM. Moreover, the GI50 is 9.6 µM in [7], 15.7 µM in [8], more than 25 µM in test [9] and 13.4 µM in [10]. The TGI in test [1], in [2], in test [3], in test [4], in test [5] and in [6] was more than 25 µM each time. The TGI in [7], in [8], in [9] and in [10] was more than 25 µM each time.
In the case of `CC1=C(/C=C/C(C)=C/C=C/C(C)=C/C(=O)O)C(C)(C)CCC1`, the TGI was more than 100 µM in test [1]; 72.6 µM in test [2]; 64.2 µM in test [3]; 63.6 µM in [4]; more than 77.9 µM in [5]; more than 100 µM in test [6]. The TGI was more than 93.2 µM in [7], more than 100 µM in test [8], more than 91.1 µM in [9] and more than 100 µM in [10].
Take `CCc1ccc(C(=Nc2ccc(N(C)C(=O)CN3CCN(C)CC3)cc2)c2c(O)[nH]c3ccc(C(=O)OC)cc23)cc1`: the GI50 was 0.0714 µM in test [1]; 0.977 µM in [2]; 0.259 µM in test [3]; 0.319 µM in test [4]; 0.256 µM in [5]; 0.292 µM in test [6]. Also, the GI50 in test [7] was 0.135 µM; in test [8], 0.788 µM; in test [9], 0.398 µM; in test [10] it was 0.532 µM. For the same compound, the TGI in [1] was 1.11 µM; in [2], 2.71 µM; in [3], 1.29 µM; in [4], 1.7 µM; in test [5], 1.4 µM; in [6], 1.61 µM. The TGI in test [7] amounted to 1.48 µM; in test [8], 2.36 µM; in test [9], 1.96 µM; in [10], 1.9 µM.
Consider `NS(=O)(=O)CC1CC[CH-]CC1.[Cl-].[Cl-].[Cl-].[Cl-].[Cl-].[Sb+5].c1ccncc1`, for which the GI50 in [1], in test [2], in [3], in [4], in test [5] and in [6] was more than 100 µM each time. Also, the GI50 in [7], in test [8], in test [9] and in test [10] was more than 100 µM each time. Also, the TGI in test [1], in [2], in test [3], in [4], in test [5] and in test [6] was more than 100 µM throughout. In addition, the TGI in test [7], in [8], in [9] and in test [10] was more than 100 µM throughout.
Turning to `CC([C@H]1CCC2C3CCC4C[C@@H](N)CC[C@]4(C)C3CC[C@@]21C)N(C)C` (some centres undefined), the GI50 is 8.88 µM in [1]; 12.4 µM in test [2]; 2.74 µM in [3]; 1.89 µM in test [4]; 4.17 µM in test [5]; 8.52 µM in test [6]. Further, the GI50 in test [7] is 5.67 µM; in test [8] it was 13.8 µM; in [9] it was 9.69 µM; in [10], 2.26 µM. The TGI in [1] was 35 µM; in test [2], more than 45.9 µM; in test [3], 7.73 µM; in test [4] it was 4.37 µM; in [5] it was 18.1 µM; in test [6], 33 µM. For the same compound, the TGI was 18.1 µM in [7], 54.8 µM in [8], 25.9 µM in test [9] and 5.27 µM in test [10].
With `CN(C)CCNc1c2ccccc2nc2oc3ccccc3c12`, the GI50 in test [1] is 4.82 µM; in test [2] it was 8.65 µM; in test [3], 3.61 µM; in [4], 2.43 µM; in test [5], 4.07 µM; in test [6], 3.4 µM. In addition, the GI50 is 14.5 µM in [7], 6.49 µM in test [8], 3.28 µM in test [9] and 6.9 µM in [10]. For the same compound, the TGI in [1] worked out at 26 µM; in test [2], 47.1 µM; in test [3], 15.1 µM; in test [4], 10.3 µM; in test [5] it was 16.1 µM; in test [6], 19.5 µM. Besides, the TGI was more than 100 µM in test [7], 32.2 µM in test [8], 13.8 µM in [9] and 23 µM in [10].
`O=C1C2CCN(CC2)C1(CO)CO`: the TGI is more than 100 µM in [1]; 46.6 µM in [2]; 36.3 µM in test [3]; 43 µM in test [4]; 66.4 µM in [5]; more than 100 µM in test [6]. Besides, the TGI is 40 µM in [7], 99.4 µM in test [8], more than 79.7 µM in [9] and more than 100 µM in [10].
`Clc1ccccc1CNc1c2ccccc2nc2ccccc12`: the GI50 in [1] was 1.88 µM; in test [2], 2.22 µM; in test [3] it was 1.67 µM; in test [4] it was 1.6 µM; in test [5] it was 1.27 µM; in test [6], 2.24 µM. For the same compound, the GI50 is 2.11 µM in test [7], 2.77 µM in [8], 1.75 µM in test [9] and 1.96 µM in test [10]. In addition, the TGI came out at 8.83 µM in [1]; 10.1 µM in test [2]; 6.56 µM in test [3]; 6.16 µM in [4]; 5.63 µM in test [5]; 11.9 µM in test [6]. Besides, the TGI was determined as 8.08 µM in test [7], 9.85 µM in [8], 6.94 µM in test [9] and 8.14 µM in [10].
With `O=[N+]([O-])c1cc(C(F)(F)F)ccc1Sc1ccc(C(F)(F)F)cc1[N+](=O)[O-]`, the GI50 in test [1] is 17.1 µM; in test [2], more than 100 µM; in [3], 3.31 µM; in test [4] it was 41.8 µM; in [5] it was 9.39 µM; in [6], 61.2 µM. For the same compound, the GI50 was 5.67 µM in test [7], 41.7 µM in test [8], 7.22 µM in test [9] and 3.04 µM in test [10]. The TGI in test [1], in test [2], in test [3], in [4], in [5] and in [6] was more than 100 µM each time. In addition, the TGI in test [7] was more than 100 µM; in test [8], more than 100 µM; in test [9] it was 30.6 µM; in test [10], more than 100 µM.
For the compound `CN(Cc1cc(Br)cc(Br)c1O)Cc1c(O)ccc2ccccc12`, the TGI in test [1] was 44.6 µM; in [2] it was 40.5 µM; in test [3], more than 100 µM; in test [4], 36.7 µM; in test [5] it was 58.3 µM; in test [6], 33.5 µM. Moreover, the TGI in [7] was 31.5 µM; in test [8] it was 35.8 µM; in test [9], 36.2 µM; in test [10] it was 40.3 µM.
On to `N#Cc1cc(S(=O)(=O)Nc2nnc(-c3ccccc3)c(-c3ccccc3)n2)c(SCc2ccccc2)cc1Cl`, for which the GI50 in test [1] was 29.7 µM; in test [2], 27.6 µM; in test [3] it was 35.5 µM; in test [4] it was 40.8 µM; in test [5], 31 µM; in test [6] it was 20 µM. For the same compound, the GI50 is 21.3 µM in test [7], 22.8 µM in [8], 23.5 µM in test [9] and 21.2 µM in test [10]. The TGI in test [1] was 83.5 µM; in test [2] it was 70.7 µM; in [3], more than 100 µM; in [4], more than 100 µM; in test [5], more than 100 µM; in test [6] it was 43.2 µM. Besides, the TGI came out at 42.1 µM in [7], 48.7 µM in [8], 45.2 µM in test [9] and 45.1 µM in test [10].

Values taken from PubChem BioAssay (NCI).
